Experimental data reported in patent CN1202821A, “用于从面颊释放药物的组合物和方法” (Theratech Inc, priority 1995, dated 1998).
Where “and” joins values, the source holds several entries; their conditions need not be identical. Equal entries are not always repeated.

Assays:
[1] = buccal, dose 119 nmol
[2] = Double-blind, placebo-controlled crossover study of buccal GLP-1(7-36) amide bilayer tablet: blood glucose, plasma insulin, plasma glucagon; type: in vivo, human; conditions: 400 μg buccal bilayer tablet, healthy volunteers
[3] = Buccal delivery of salmon calcitonin from bilayer tablets in dogs (Table 3); type: in vivo, dog; conditions: individual dogs, 2 tablets
[4] = Dog buccal mucosa model: insulin bilayer tablet, blood glucose; type: in vivo; conditions: mean of 4 dogs, 1 buccal tablet of 0.375 inch, 5 U/kg

With CC[C@H](C)[C@H](NC(=O)[C@H](Cc1ccccc1)NC(=O)[C@H](CCC(=O)O)NC(=O)[C@H](CCCCN)NC(=O)[C@H](C)NC(=O)[C@H](C)NC(=O)[C@H](CCC(N)=O)NC(=O)CNC(=O)[C@H](CCC(=O)O)NC(=O)[C@H](CC(C)C)NC(=O)[C@H](Cc1ccc(O)cc1)NC(=O)[C@H](CO)NC(=O)[C@H](CO)NC(=O)[C@@H](NC(=O)[C@H](CC(=O)O)NC(=O)[C@H](CO)NC(=O)[C@@H](NC(=O)[C@H](Cc1ccccc1)NC(=O)[C@@H](NC(=O)CNC(=O)[C@H](CCC(=O)O)NC(=O)[C@H](C)NC(=O)[C@@H](N)Cc1c[nH]cn1)[C@@H](C)O)[C@@H](C)O)C(C)C)C(=O)N[C@@H](C)C(=O)N[C@@H](Cc1c[nH]c2ccccc12)C(=O)N[C@@H](CC(C)C)C(=O)N[C@H](C(=O)N[C@@H](CCCCN)C(=O)NCC(=O)N[C@@H](CCCNC(=N)N)C(N)=O)C(C)C [GLP-1(7-36)酰胺] the “生物利用度 (bioavailability)” value ([1]; individual subjects 901-907, listed as GLP-1(η-36)酰胺) was 8.04 % and 6.40 % and 10.01 %, the “生物利用度 (bioavailability), mean” value ([1]; mean (平均) of subjects) was 7.08 % and the hypoglycaemia [2] was “没有导致低血糖症”.

For CC(C)C[C@H](NC(=O)[C@H](CCCCN)NC(=O)CNC(=O)[C@H](CC(C)C)NC(=O)[C@@H](NC(=O)[C@@H]1CSSC[C@H](N)C(=O)N[C@@H](CO)C(=O)N[C@@H](CC(N)=O)C(=O)N[C@@H](CC(C)C)C(=O)N[C@@H](CO)C(=O)N[C@@H]([C@@H](C)O)C(=O)N1)C(C)C)C(=O)N[C@@H](CO)C(=O)N[C@@H](CCC(N)=O)C(=O)N[C@@H](CCC(=O)O)C(=O)N[C@@H](CC(C)C)C(=O)N[C@@H](Cc1c[nH]cn1)C(=O)N[C@@H](CCCCN)C(=O)N[C@@H](CC(C)C)C(=O)N[C@@H](CCC(N)=O)C(=O)N[C@H](C(=O)N[C@@H](Cc1ccc(O)cc1)C(=O)N1CCC[C@H]1C(=O)N[C@@H](CCCNC(=N)N)C(=O)N[C@H](C(=O)N[C@@H](CC(N)=O)C(=O)N[C@H](C(=O)NCC(=O)N[C@@H](CO)C(=O)NCC(=O)N[C@H](C(=O)N1CCC[C@H]1C(N)=O)[C@@H](C)O)[C@@H](C)O)[C@@H](C)O)[C@@H](C)O [鲑鱼降钙素], the “ng吸收 (ng absorbed)” value ([3]; 0.71 cm2) was 6,535 ng and 23,379 ng and the “ng吸收 (ng absorbed)” value ([3]; 1.27 cm2) was 72,958 ng and 16,461 ng and 20,989 ng and 17,614 ng.

For “胰岛素: human insulin in the buccal bilayer tablet of Example 6”, the “control of blood glucose concentration by buccal delivery” value [4] was “有效的”.
